Data taken from PMC8379154, “UbiD domain dynamics underpins aromatic decarboxylation” (Nature Communications, 2021).

Assays:
BsVdcCD = target: T1, BsVdcCD (Bacillus subtilis, UniProt P94405); assay: overnight endpoint HPLC decarboxylation assay; type: biochemical; conditions: 5 mM substrate, 10 µM enzyme, prFMN, MnCl2, 100 mM KPi pH 6, anaerobic, 18 h
T1 construct: gene bsdC; VdcC and VdcD expressed in E. coli BL21(DE3), His tag on C-terminus of VdcC and/or N-terminus of VdcD; reconstituted in vitro with prFMN and Mn2+; with Phenolic acid decarboxylase subunit D
T1 sequence (P94405 1-473): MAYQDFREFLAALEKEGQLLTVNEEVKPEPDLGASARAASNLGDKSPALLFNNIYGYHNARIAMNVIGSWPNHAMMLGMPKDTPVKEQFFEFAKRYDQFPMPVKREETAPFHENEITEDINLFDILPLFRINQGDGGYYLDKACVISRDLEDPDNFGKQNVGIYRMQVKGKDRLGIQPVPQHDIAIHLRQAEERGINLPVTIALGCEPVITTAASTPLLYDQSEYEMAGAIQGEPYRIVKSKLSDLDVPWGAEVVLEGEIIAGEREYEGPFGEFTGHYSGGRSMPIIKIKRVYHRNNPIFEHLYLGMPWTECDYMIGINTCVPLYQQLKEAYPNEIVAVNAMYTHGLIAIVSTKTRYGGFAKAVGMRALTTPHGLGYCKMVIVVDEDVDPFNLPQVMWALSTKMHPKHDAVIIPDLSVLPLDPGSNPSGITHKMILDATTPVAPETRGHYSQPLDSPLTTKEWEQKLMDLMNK
T1 sequence (C0H3U9 1-75 partner): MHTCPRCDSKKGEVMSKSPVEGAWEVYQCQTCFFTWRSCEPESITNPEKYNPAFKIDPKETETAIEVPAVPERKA

[1] = target: Sedimentibacter hydroxybenzoicus VdcC, untagged (Sedimentibacter hydroxybenzoicus); assay: crystal structure; apo complexes; F222 closed (7AE4), P1 open (7AE5), P212121 ShVdcCD^V59X (7AE7); molecular replacement with E. coli UbiD domains

| stoichiometry N [1] | Molecule | overnight endpoint HPLC decarboxylation assay (BsVdcCD) |
| --- | --- | --- |
|  | COc1cc(C(=O)O)ccc1O [vanillic acid] | the VdcC + VdcD reconstituted samples demonstrated considerable activity in contrast to isolated VdcC |
|  | COc1cc(C(=O)O)cc(OC)c1O [syringic acid] | syringic acid, for which product formation could only be detected in the presence of BsVdcCD |
| 6 | Sedimentibacter hydroxybenzoicus VdcC, untagged (enzyme) |  |
